One data set deals with T1, BpSDR (Paraburkholderia phymatum, UniProt B2JGP2).
T1 construct: gene Bphy_1038; residues 1-289, noncleavable N-terminal His6 tag (MAHHHHHHM-ORF), vector pBG1861, E. coli BL21(DE3); SEC monomer or dimer, prototypical SDR dimers by crystal symmetry
Kind of data set: X-ray crystal structure, […] Å. The conditions noted are these: co-crystallised with 4 mM NAD, pH 4.5-4.6, 14 °C; cofactor-binding domain; acetate from crystallisation solution in substrate site.

Data set [1] deals with the molecule itself. Kind of data set: crystal structure; space group C222(1), 1.80 A, three monomers in the asymmetric unit, with NAD and acetate; dimers generated by crystallographic symmetry.

In the case of `NC(=O)c1ccc[n+]([C@@H]2O[C@H](COP(=O)(O)OP(=O)(O)OC[C@H]3O[C@@H](n4cnc5c(N)ncnc54)[C@H](O)[C@@H]3O)[C@@H](O)[C@H]2O)c1` [NAD], the “X-ray crystal structure, 1.80 Å” value at BpSDR was “each monomer having an acetate molecule in the substrate-binding domain and a NAD molecule”.

B1: short-chain dehydrogenase/reductase from Burkholderia phymatum (enzyme)
chain: MFEFDGKVAVITGAGSGFGRAFAEKGASLGMKLVLADVDEGALARTVDTLRAAGAEVIGVRTDVSNGAQVQALADAALEAFGKVHLLFNNAGVGAGGFLWESSANDWAWVFGVNVMGVAHGVRVFAPIMLGQNEAAHIVNTASVAGLLSPPSMGIYNASKHAVVSLTETLYHDLRNAGGEVGCSLLCPAFVPTGIADAERVRPEALRNEAQPTRSQLAADRQLQRAVRSGKLGATDVATLTFEAIAERRFYILTHPAILATVRLRHEDIELQRNPTDPLSLKPEVKEAR
notes: short-chain dehydrogenase/reductase, Burkholderia phymatum STM815, UniProt B2JGP2, amino acids 1-289; Crystallised with 4 mM NAD; each monomer holds NAD and an acetate; 278 residues of each monomer are seen in the structure; also called BpSDR; SDR from B. phymatum; source: E. coli BL21(DE3), purified (IMAC, SEC); not shown: His6 (MAHHHHHH, noncleavable hexahistidine fusion tag from the vector …)
In the case of B1, the binding result in data set [1] was “binds”.

The values above are taken from PMC8805215, “Crystal structure of a short-chain dehydrogenase/reductase from Burkholderia phymatum in complex with NAD” (Acta Crystallographica. Section F, Structural Biology …, 2022).
